Experimental data published in PubChem BioAssay (NCI).
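Five compound concentrations were applied to cells in 96-well plates for 48 hours; endpoints were derived by simple linear interpolation of the resulting dose-response curve. Here, GI50 denotes the concentration required for 50% inhibition of growth. TGI: concentration producing complete growth inhibition.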

Assays:
Experiment in all cases: DTP human tumour cell line panel, 48 h
RXF 393 renal = system: RXF 393 renal
SK-MEL-28 melanoma = system: SK-MEL-28 melanoma
UO-31 renal = system: UO-31 renal
M14 melanoma = system: M14 melanoma
NCI-H226 lung = system: NCI-H226 lung
OVCAR-8 ovarian = system: OVCAR-8 ovarian
SNB-75 CNS = system: SNB-75 CNS
SK-MEL-5 melanoma = system: SK-MEL-5 melanoma
SK-OV-3 ovarian = system: SK-OV-3 ovarian
MDA-MB-435 = system: MDA-MB-435

## CCc1cccc(C)c1NC(=O)c1sc2nc3c(cc2c1N)CCCCC3
RXF 393 renal
  GI50: 1.6 µM
  TGI: 6.4 µM
SK-MEL-28 melanoma
  GI50: 12 µM
  TGI: > 100 µM
UO-31 renal
  GI50: 6.08 µM
  TGI: > 100 µM
M14 melanoma
  GI50: 2.53 µM
  TGI: > 100 µM
NCI-H226 lung
  GI50: 14.5 µM
  TGI: > 100 µM
OVCAR-8 ovarian
  GI50: 3.72 µM
  TGI: > 100 µM
SNB-75 CNS
  GI50: 1.79 µM
  TGI: 51.5 µM
SK-MEL-5 melanoma
  GI50: 2.97 µM
  TGI: 13.8 µM
SK-OV-3 ovarian
  GI50: 5.24 µM
  TGI: > 100 µM

## COC(=O)/C=C1/CCC(C(=O)OC)N1 (centres undefined)
RXF 393 renal
  TGI: > 100 µM
SK-MEL-28 melanoma
  TGI: > 100 µM
UO-31 renal
  TGI: > 100 µM
M14 melanoma
  TGI: > 100 µM
OVCAR-8 ovarian
  TGI: > 100 µM
SNB-75 CNS
  TGI: > 100 µM
SK-MEL-5 melanoma
  TGI: > 100 µM
SK-OV-3 ovarian
  TGI: > 100 µM

## CC1CCC2(CC1)NN=c1s/c(=C\c3ccc(O)cc3)c(=O)n1N2 (centres undefined)
RXF 393 renal
  TGI: > 100 µM
SK-MEL-28 melanoma
  TGI: > 100 µM
M14 melanoma
  TGI: > 100 µM
NCI-H226 lung
  TGI: > 100 µM
OVCAR-8 ovarian
  TGI: > 100 µM
SNB-75 CNS
  TGI: > 100 µM
SK-MEL-5 melanoma
  TGI: > 100 µM
SK-OV-3 ovarian
  TGI: > 100 µM

## COCCCNC(=O)C1C(=O)N(CCCOC)C(=O)/C1=N\N (centres undefined)
RXF 393 renal
  TGI: > 100 µM
SK-MEL-28 melanoma
  TGI: > 100 µM
UO-31 renal
  TGI: > 100 µM
M14 melanoma
  TGI: > 100 µM
OVCAR-8 ovarian
  TGI: > 100 µM
SNB-75 CNS
  TGI: > 100 µM
SK-MEL-5 melanoma
  TGI: > 100 µM

## C#Cc1cccc(N2C(=O)CCC2=O)c1
SK-MEL-28 melanoma
  TGI: 32.3 µM
UO-31 renal
  TGI: 31.9 µM
M14 melanoma
  TGI: 11.7 µM
NCI-H226 lung
  TGI: 35 µM
OVCAR-8 ovarian
  TGI: 36.1 µM
SNB-75 CNS
  TGI: 26.8 µM
SK-MEL-5 melanoma
  TGI: 37.1 µM
MDA-MB-435
  TGI: 31.2 µM
SK-OV-3 ovarian
  TGI: 43 µM

## CCOC(=O)C1N(S(=O)(=O)c2ccc(C)cc2)CCC12c1ccccc1N(C(C)=O)C2c1ccc(OC)c(OC)c1 (centres undefined)
RXF 393 renal
  TGI: > 100 µM
SK-MEL-28 melanoma
  TGI: > 100 µM
UO-31 renal
  TGI: > 100 µM
M14 melanoma
  TGI: > 100 µM
NCI-H226 lung
  TGI: > 100 µM
OVCAR-8 ovarian
  TGI: > 100 µM
SNB-75 CNS
  TGI: > 100 µM
SK-MEL-5 melanoma
  TGI: > 100 µM
SK-OV-3 ovarian
  TGI: > 100 µM

## Cc1cc(=O)oc2cc(OC(=O)N(C)C)c(Cl)cc12
RXF 393 renal
  TGI: 41.5 µM
SK-MEL-28 melanoma
  TGI: > 100 µM
UO-31 renal
  TGI: > 100 µM
M14 melanoma
  TGI: > 100 µM
NCI-H226 lung
  TGI: > 100 µM
OVCAR-8 ovarian
  TGI: > 100 µM
SK-MEL-5 melanoma
  TGI: > 100 µM
MDA-MB-435
  TGI: > 100 µM

## COc1ccc(Nc2nc3ccc(C(F)(F)F)cc3nc2-c2ccccc2)cc1OC
RXF 393 renal
  TGI: 83.6 µM
SK-MEL-28 melanoma
  TGI: > 100 µM
UO-31 renal
  TGI: 72.9 µM
M14 melanoma
  TGI: > 100 µM
NCI-H226 lung
  TGI: > 100 µM
OVCAR-8 ovarian
  TGI: > 100 µM
SNB-75 CNS
  TGI: > 100 µM
SK-MEL-5 melanoma
  TGI: > 100 µM
SK-OV-3 ovarian
  TGI: > 100 µM

## CC(C)CC(NC(=O)c1cccc(O)c1O)C(=O)NCc1cc(CNC(=O)C(CC(C)C)NC(=O)c2cccc(O)c2O)cc(CNC(=O)C(CC(C)C)NC(=O)c2cccc(O)c2O)c1 (centres undefined)
SK-MEL-28 melanoma
  TGI: 68.5 µM
UO-31 renal
  TGI: 70.1 µM
NCI-H226 lung
  TGI: 60.2 µM
OVCAR-8 ovarian
  TGI: > 100 µM
SNB-75 CNS
  TGI: 45.9 µM
SK-MEL-5 melanoma
  TGI: 30.4 µM
SK-OV-3 ovarian
  TGI: 35.5 µM

## COc1ccc2c(c1)N1CCc3cc(OC)c(OC)cc3C1C2 (centres undefined)
RXF 393 renal
  TGI: > 100 µM
SK-MEL-28 melanoma
  TGI: > 100 µM
UO-31 renal
  TGI: > 100 µM
NCI-H226 lung
  TGI: 98.7 µM
OVCAR-8 ovarian
  TGI: > 100 µM
SK-OV-3 ovarian
  TGI: > 100 µM

## COc1cc(NC(N)=NCCC(C)(C)Oc2ccc(C(F)(F)F)cc2)ncc1C#N
RXF 393 renal
  GI50: 1.68 µM
  TGI: 3.11 µM
SK-MEL-28 melanoma
  GI50: 1.83 µM
  TGI: 3.23 µM
UO-31 renal
  GI50: 1.48 µM
  TGI: 2.85 µM
M14 melanoma
  GI50: 1.62 µM
  TGI: 3.11 µM
OVCAR-8 ovarian
  GI50: 1.79 µM
  TGI: 3.54 µM
SNB-75 CNS
  GI50: 1.55 µM
  TGI: 3.02 µM
SK-MEL-5 melanoma
  GI50: 1.58 µM
  TGI: 2.93 µM
MDA-MB-435
  GI50: 1.73 µM
  TGI: 3.17 µM
SK-OV-3 ovarian
  GI50: 1.84 µM
  TGI: 3.26 µM

## CN(C)CC(C)(C)C(=O)/C=C/c1ccc(/C=C/C(=O)C(C)(C)CN(C)C)cc1
RXF 393 renal
  TGI: 2.66 µM
SK-MEL-28 melanoma
  TGI: 3.5 µM
UO-31 renal
  TGI: 3.49 µM
M14 melanoma
  TGI: 3.21 µM
NCI-H226 lung
  TGI: 4.93 µM
OVCAR-8 ovarian
  TGI: 6.71 µM
SNB-75 CNS
  TGI: 3.05 µM
SK-MEL-5 melanoma
  TGI: 5.13 µM
SK-OV-3 ovarian
  TGI: 8.12 µM

## Clc1ccc(SC(/C=C/NNC2=NC(c3ccccc3)C(c3ccccc3)=NN2)c2ccccc2)cc1 (centres undefined)
SK-MEL-28 melanoma
  TGI: 69.2 µM
UO-31 renal
  TGI: 38.8 µM
M14 melanoma
  TGI: 46 µM
NCI-H226 lung
  TGI: 62.7 µM
OVCAR-8 ovarian
  TGI: > 100 µM
SNB-75 CNS
  TGI: 64.7 µM
SK-MEL-5 melanoma
  TGI: 31.2 µM
SK-OV-3 ovarian
  TGI: > 100 µM

## CCCCCC[N+](C)(C)Cc1ccc(C[N+](C)(C)CCCCCC)cc1
SK-MEL-28 melanoma
  TGI: 23.6 µM
UO-31 renal
  TGI: 29.8 µM
M14 melanoma
  TGI: 9.34 µM
NCI-H226 lung
  TGI: 20.4 µM
OVCAR-8 ovarian
  TGI: 7.37 µM
SNB-75 CNS
  TGI: 10.8 µM
SK-MEL-5 melanoma
  TGI: 28.5 µM
SK-OV-3 ovarian
  TGI: 33.4 µM

## COC(=O)[C@@H](C)C[C@H](Cc1ccccc1)NC(=O)c1csc(CC[C@H](C(C)C)N(C)C(=O)[C@@H](NC(=O)[C@H]2CCCCN2C)C(C)C)n1
SK-MEL-28 melanoma
  GI50: 1.45 µM
  TGI: > 33.3 µM
UO-31 renal
  GI50: 1.66 µM
  TGI: > 33.3 µM
M14 melanoma
  GI50: 0.262 µM
  TGI: 1.52 µM
NCI-H226 lung
  GI50: 0.856 µM
  TGI: > 23.9 µM
OVCAR-8 ovarian
  GI50: 0.465 µM
  TGI: > 33.3 µM
SNB-75 CNS
  GI50: 0.222 µM
  TGI: 9.2 µM
SK-MEL-5 melanoma
  GI50: 0.0981 µM
  TGI: 0.747 µM
MDA-MB-435
  GI50: 0.0407 µM
  TGI: 0.17 µM
SK-OV-3 ovarian
  GI50: 0.451 µM
  TGI: > 33.3 µM

## CCC[CH2][Sn]([CH2]CCC)([CH2]CCC)[O]c1ccc(Cl)cc1Cl
RXF 393 renal
  GI50: 0.142 µM
  TGI: 0.296 µM
SK-MEL-28 melanoma
  GI50: 0.162 µM
  TGI: 0.302 µM
UO-31 renal
  GI50: 0.0572 µM
  TGI: 0.203 µM
M14 melanoma
  GI50: 0.143 µM
  TGI: 0.284 µM
OVCAR-8 ovarian
  GI50: 0.163 µM
  TGI: 0.354 µM
SNB-75 CNS
  GI50: 0.152 µM
  TGI: 0.445 µM
SK-MEL-5 melanoma
  GI50: 0.138 µM
  TGI: 0.27 µM
MDA-MB-435
  GI50: 0.139 µM
  TGI: 0.29 µM
SK-OV-3 ovarian
  GI50: 0.137 µM
  TGI: 0.276 µM

## O=c1nc(/C=C/c2ccccc2Cl)cc2n1CCN2CCO
RXF 393 renal
  TGI: > 100 µM
SK-MEL-28 melanoma
  TGI: > 100 µM
UO-31 renal
  TGI: > 100 µM
M14 melanoma
  TGI: > 100 µM
NCI-H226 lung
  TGI: > 100 µM
OVCAR-8 ovarian
  TGI: > 100 µM
SNB-75 CNS
  TGI: > 100 µM
SK-OV-3 ovarian
  TGI: > 100 µM

## COc1ccc2c(c1)C(=O)c1c-2n(CCCN=[N+]=[N-])c(=O)c2cc(OC)c(OC)cc12
SK-MEL-28 melanoma
  GI50: > 100 µM
  TGI: > 100 µM
UO-31 renal
  GI50: 44.3 µM
  TGI: > 100 µM
NCI-H226 lung
  GI50: > 100 µM
  TGI: > 100 µM
OVCAR-8 ovarian
  GI50: > 100 µM
  TGI: > 100 µM
SNB-75 CNS
  GI50: 14.8 µM
  TGI: 35.3 µM
SK-MEL-5 melanoma
  GI50: > 100 µM
  TGI: > 100 µM
MDA-MB-435
  GI50: > 100 µM
  TGI: > 100 µM
SK-OV-3 ovarian
  GI50: 41.6 µM
  TGI: > 100 µM

## O=C1c2ccccc2C(Br)(Br)c2ccccc21
RXF 393 renal
  TGI: > 31.6 µM
SK-MEL-28 melanoma
  TGI: > 31.6 µM
UO-31 renal
  TGI: > 31.6 µM
M14 melanoma
  TGI: > 31.6 µM
NCI-H226 lung
  TGI: > 31.6 µM
OVCAR-8 ovarian
  TGI: > 100 µM
SNB-75 CNS
  TGI: > 31.6 µM
SK-MEL-5 melanoma
  TGI: > 31.6 µM
SK-OV-3 ovarian
  TGI: > 31.6 µM

## C=C(c1ccc2nc(NC(=O)OC)[nH]c2c1)c1cccs1
RXF 393 renal
  TGI: > 100 µM
SK-MEL-28 melanoma
  TGI: > 100 µM
UO-31 renal
  TGI: > 62.4 µM
M14 melanoma
  TGI: > 100 µM
NCI-H226 lung
  TGI: > 94.5 µM
OVCAR-8 ovarian
  TGI: > 36.4 µM
SK-MEL-5 melanoma
  TGI: > 20.7 µM
SK-OV-3 ovarian
  TGI: > 45.1 µM
